Results: patent US20090170899A1, “Stimulators of 5-HT4 receptors and uses thereof” (priority 2004, published 2009)
“Also recorded” adds a separate entry of the source.

Key:
Type in all cases: in vivo, rat
[1] = test system: hippocampal CA3 pyramidal neurons; assay: Response of hippocampal CA3 pyramidal neurons to WAY 100635 after 3-day treatments (5-HT1A tonus)
Experimental: FIGS. 8A to 8C. […] Single-cell extracellular recordings were performed in the CA3 region of chloral-hydrate anaesthetized rats by using multiple-barrel glass microelectrodes, combined with microiontophoretic pumps (with the central barrel used for recordings). Pyramidal neurons were identified according to the classical criteria (see Example 5, the experimental procedures). The 5-HT4 agonists were administered through the use of osmotic minipumps, inserted subcutaneously in the region of the back. Recordings were performed with the minipumps still in place. *p<0.05, **p<0.01, ***p<0.001 vs control, Dunnett's test. […] FIG. 8C is a typical example showing the response of a single pyramidal neuron to cumulative doses of WAY 100635, in a rat co-administered with RS 67333 (same treatment as above for FIG. 8A) and the 5-HT depleter para-chlorophenylalanine (pCPA; 150 mg/kg, i.p. once daily 72, 48 and 24 h before the recordings).
Drugs and Chemicals. The following compounds were used: GR 125487 sulphamate, prucalopride monohydrochloride, citalopram hydrobromide (gifts from Glaxo, Janssen and Lundbeck laboratories, respectively), RS 67333 hydrochloride (Tocris Cookson Inc., Ellisville, Mo., USA), WAY 100635 hydrochloride (Research Biochemicals, Natick, Mass., USA), pCPA methyl ester hydrochloride, BrdU (Sigma-Aldrich Canada, Oakville, Ontario, Canada). All compounds were diluted in distilled water. All drug dosages refer to the free base. For chronic treatments, prucalopride (2.5 mg/kg/day), RS 67333 (1.5 mg/kg/day) or the vehicle were delivered through osmotic minipumps (Alza, Palo Alto, Calif., USA), inserted subcutaneously in the region of the back under short-duration (≦5 min) halothane anesthesia. The 5-HT depleter PCPA was administered once daily at the dose of 150 mg/kg, i.p., 72, 48 and 24 h before the recordings. BrdU treatments consisted of two administrations per day (50 mg/kg, i.p. each, 8 h interval), starting from the day of minipump insertion until day 2 post-surgery.
(§1) Microiontophoresis and extracellular recordings from hippocampal CA3 pyramidal neurons. Recording and microiontophoresis were performed with five-barreled glass micropipettes broken back to 8-12 μm under microscope control. The central barrel was filled with the same solution as in the DRN and was used for extracellular unitary recordings. Pyramidal neurons were identified by their large amplitude (0.5-1.2 mV) and long-duration (0.8-1.2 ms) simple spikes alternating with complex spike discharges (Kandel and Spencer, 1961). The side barrels contained the following solutions: quisqualate (1.5 mM in 200 mM NaCl, pH 8), WAY 100635 (15 mM in 200 mM NaCl, pH 4), and 2 M NaCl used for automatic current balancing. Rats were mounted in the stereotaxic apparatus and the micropipettes were lowered at 4.2 mm lateral and 4.2 anterior to lambda into the CA3 sub-region of the dorsal hippocampus.
The firing activity of dorsal hippocampus pyramidal neurons was then recorded in the CA3 subfield, before and after systemic administration of the selective 5-HTLA antagonist WAY 100635.

[2] = test system: hippocampal CA3 pyramidal neurons; assay: Acute i.v. prucalopride on firing of hippocampal CA3 pyramidal neurons, with microiontophoresis; details: microiontophoretic application, 1 nA
Experimental: FIGS. 9A to 9D. FIGS. 9A and 9C show a typical example (integrated firing rate histogram) of the response of a single hippocampal pyramidal neuron of the CA3 sub-field to an acute, intravenous administration of the selective 5-HT4 agonist prucalopride (1000 μg/kg), and its reversal by local, microiontophoretic application of the selective 5-HT1A antagonist WAY 100635 (A), or systemic injection of the selective 5-HT4 antagonist GR 125487 (1000 μg/kg, i.v.) (C). Single-cell extracellular recordings were performed in the CA3 region of chloral-hydrate anaesthetized rats by using multiple-barrel glass microelectrodes, combined with microiontophoretic pumps (with the central barrel used for recordings). Pyramidal neurons were identified according to the classical criteria (see Example 5, experimental procedures). FIGS. 9B and 9D show a summary of the effects as for FIGS. 9A and 9C, respectively. Bar histograms represent the mean (S.E.M.) percentage effect, calculated for each neuron with respect to its basal firing rate (i.e. 100% value), and the number in each column represents the number of neurons tested. *p<0.05 vs basal value, one-way ANOVA.
as §1
Involvement of endogenous 5-HT and hippocampal 5-HT1A receptors in the effect of 5-HT4 agonists. […] This interpretation is consistent with our own previous findings, showing that both acute and chronic (3-day) administration of the same compounds augment DRN 5-HT neuronal firing activity (Lucas and Debonnel, 2002; Lucas et al., 2005). It is also in keeping with observations from a single in vivo microdialysis study, where acute systemic injection of preferential 5-HT4 agonists increased hippocampal 5-HT efflux (Ge and Barnes, 1996). To further address this possibility, two additional series of experiments were conducted. First, the role of endogenous 5-HT was assessed by using the same protocol as above, in rats co-treated with RS 67333 (or its vehicle) and the 5-HT depleter para-chlorophenylalanine (pCPA). […] The ejection currents of quisqualate needed to activate CA3 pyramidal neurons were, in this case, similar to those used in controls (0 to −2 nA, FIG. 8C). We then tested the ability of a local application of WAY 100635, directly into the CA3 subfield through the use of microiontophoresis, to modify the effect of a 5-HT4 agonist. We chose not to use the previous protocol (i.e. chronic treatments), because, as shown above, the required quisqualate currents differ between the experimental groups. Even though all currents were balanced, it was not possible to exclude the possibility that the amount of quisqualate present in the vicinity of the electrode may have an influence on the quantity of WAY 100635 actually ejected, and/or on its ability to act on pyramidal neurons. For this reason, prucalopride was used acutely in naïve rats, at a dose known to induce a significant augmentation of DRN 5-HT neuronal activity (1000 μg/kg, i.v.) (Lucas and Debonnel, 2002). […]

DRN 5-HT1A autoreceptors = assay: Citalopram i.v. dose-response on DRN 5-HT neuron firing (5-HT1A autoreceptor sensitivity) after 3-day RS 67333
Experimental: FIG. 7 is a dose-response curve illustrating the effect of cumulative intravenous doses of citalopram on DRN 5-HT neuron average (mean±S.E.M.) firing rate, expressed as percentage of basal activity, in rats treated with the selective 5-HT4 agonist RS 67333 (1.5 mg/kg/day, 3 days, n=5) or its vehicle (n=5). Single-cell extracellular recordings were performed in the DRN of chloral-hydrate anaesthetized rats by using single-barrel glass microelectrodes, and 5-HT neurons were identified according to the classical criteria (see Example 5, the experimental procedures). RS 67333 was administered through the use of osmotic minipumps, inserted subcutaneously in the region of the back. Recordings were performed with the minipumps still in place.
Extracellular recordings of DRN 5-HT neurons. Recordings were performed using single-barreled glass micropipettes. Electrodes were filled with a 2 M NaCl solution saturated with Fast Green FCF, resulting in an impedance of 2-5 MΩ. Rats were anaesthetized with chloral hydrate (400 mg/kg, i.p.) and placed in a stereotaxic frame. A burr hole was drilled on the midline 1 mm anterior to lambda. DRN 5-HT neurons were encountered over a distance of 1 mm starting immediately below the ventral border of the Sylvius aqueduct. These neurons were identified using the classical criteria: a slow (0.5-2.5 Hz) and regular firing rate and long-duration (0.8-1.2 ms) positive action potentials (Aghajanian, 1978). At the end of the experiments, a 25 μA cathodal current was passed through the recording electrode to leave a Fast Green deposit at the recording site. Animals were sacrificed with an i.v. overdose of chloral hydrate, and the brain removed. The site of recording was verified under microscope immediately after experiments.
Statistical analysis. The comparison between the two slopes in FIG. 7 was performed by using the GraphPad Prism software (Version 3.03, GraphPad Software Inc.). All other statistics were performed by using one-way ANOVAs, followed by the Dunnett's test when multiple comparisons were necessary.
Effect of a 3-day treatment with a 5-HT4 agonist on DRN 5-HT1A autoreceptors sensitivity. […] In rats treated with the selective 5-HT4 agonist RS 67333 (Eglen et al., 1995) (1.5 mg/kg/day), these values were shifted to the right, reaching 226±26 and 430 μg/kg, respectively. […] The acute inhibitory effect produced by a SSRI on DRN 5-HT neuronal activity results from increased extracellular levels of 5-HT, due to the blockade of its reuptake, and is selectively related to the stimulation of somatodendritic 5-HT1A autoreceptors (Hajos et al., 1999). The degree of inhibition induced by citalopram has therefore been used as a reliable index of their sensitivity (Arborelius et al., 1999, 2004; Sanchez et al., 2003). It appears that a 3-day treatment with a 5-HT4 receptor agonist is sufficient to desensitize 5-HT1A autoreceptors in the DRN.

[3] = Forced swimming test (FST)
Text: The “forced swimming test” (FST) is a behavioural test for rodents, which predicts the efficacy of antidepressant drugs (Porsolt et al., 1977; Lucki, 1997). […] The widespread use of this model is largely a result of its ease of use, reliability across laboratories and ability to detect a broad spectrum of antidepressant agents. The test is based on the observation that rats, following initial escape-oriented movements (climbing and swimming), develop an immobile posture when placed in an inescapable cylinder of water. If they are replaced in the same testing apparatus 24 h later, they resume this immobile posture quickly. The immobility is thought to reflect either a failure of persistence in escape-directed behavior (i.e. behavioral despair) or the development of passive behavior that disengages the animal from active forms of coping with stressful stimuli. If antidepressant treatments are given between the two exposures, the subjects will actively persist engaging in escape-directed behaviors for longer periods of time than after vehicle treatment. This will be reflected by a reduction of immobility time, and by an increase of climbing attempts. […] The combination effect of a particular 5-HT4 agonist and a SSRI may be evaluated using the FST model.
Experiments were carried out in male Sprague-Dawley rats (Charles River, St Constant, Québec). We used the FST as previously described (Porsolt et al., 1977). Briefly, the rats experienced a pretest session followed 24 hours later by a test session. For both the pretest and the test sessions, conducted under low illumination (12 lx), the rats were placed in a plastic cylindrical tank (50 cm high by 20 cm in diameter) filled with water at […], with a depth of 40 cm, for which the hind limbs could not reach the tank floor. In all experiments, the pretest was carried out for 15 min and the test for 5 min in the same tank but only the last 4 min were analyzed. Following either pretest or test sessions, rats were dried with a towel and kept warm for 30 min before returning in their home cage. A digital camera recorded on line animal's behavior during the FST, and both time of immobility and climbing attempts were counted. Citalopram hydrobromide (10 mg/kg, i.p.) or paroxetine (10 mg/kg, i.p.) and prucalopride hydrochloride (2.5 mg/kg, i.p.) or RS 67333 hydrochloride (1.5 mg/kg, i.p.) were administered simultaneously 30 minutes before the test session. Animals were divided into 4 groups: vehicle/vehicle, 5-HT4 agonist/vehicle, vehicle/SSRI and 5-HT4 agonist/SSRI. For each compound, distilled water was used as the vehicle. All drug dosages refer to the free base.
Behavioral experiments. We used the FST as previously described (Porsolt et al., 1977). Briefly, rats experienced a pre-test session followed 24 hours later by a test session. For both the pre-test and the test sessions, conducted under low illumination (12 lx), the animals were placed in a plastic cylindrical tank (50 cm high by 20 cm in diameter) filled with water at […], with a depth of 40 cm, for which the hind limbs could not reach the tank floor. In all experiments, the pre-test was carried out for 15 min and the test for 5 min in the same tank but the last 4 min only were analyzed. Prucalopride (2.5 mg/kg, i.p.) and RS 67333 (1.5 mg/kg, i.p.) were administered 30 min before the test session. Following either pre-test or test sessions, rats were dried with a towel and kept warm for 30 min before returning in their home cage. A camera coupled with a computer recorded on line animal behavior during the FST through a specialized digital interface (Videotrack, ViewPoint, Lyon, France). This interface underscored on line the subtraction of video frames. Immobility time in FST was derived from the number of frames (every 40 ms) being below a predefined threshold over FST duration.

[4] = rats treated with RS 67333 1.5 mg/kg/day, 3 days

## N[C@@H](Cc1ccc(Cl)cc1)C(=O)O (racemic) [pCPA, para-chlorophenylalanine]
[1]; rats co-treated with RS 67333 and pCPA
  quisqualate ejection currents needed to activate CA3 pyramidal neurons: 0 to −2 nA
[1]; rats treated with RS 67333, pCPA 150 mg/kg i.p. 72, 48 and 24 h before
  effect of pCPA on the facilitory action of WAY 100635: totally abolished
[1]; vehicle group
  effect of pCPA on CA3 neuron firing activity and response to WAY 100635: no effect per se

## COc1ccccc1N1CCN(CCN(C(=O)C2CCCCC2)c2ccccn2)CC1 [WAY 100635]
[1]; rat, in vivo, iv
  effect of WAY 100635 on CA3 pyramidal neurons: no effect; also recorded: without any effect
[2]
  effect of local WAY 100635 by itself: devoid of any effect
  effect of local WAY 100635 on the inhibition by prucalopride: totally reversed

## CN(C)CCCC1(c2ccc(F)cc2)OCc2cc(C#N)ccc21 (centres unmarked) [citalopram]
DRN 5-HT1A autoreceptors; RS 67333 group (1.5 mg/kg/day, 3 days)
  slope of the dose-response curve: −0.25±0.02
DRN 5-HT1A autoreceptors; naïve (vehicle) animals
  ED50 of inhibition of 5-HT neuronal firing rate: 0.13 ± 0.03 mg/kg
  ED100 of inhibition of 5-HT neuronal firing rate: 0.28 mg/kg
DRN 5-HT1A autoreceptors; [4]
  ED50 of inhibition of 5-HT neuronal firing rate: 0.226 ± 0.026 mg/kg
  ED100 of inhibition of 5-HT neuronal firing rate: 0.43 mg/kg
DRN 5-HT1A autoreceptors; vehicle group
  slope of the dose-response curve: −0.34±0.03
[3]; Example 3, single i.p. 30 min before test, citalopram or paroxetine 10 mg/kg, prucalopride 2.5 mg/kg, RS 67333 1.5 mg/kg
  change of total time of immobility in FST: −34%
[3]; Example 4, citalopram 3 mg/kg i.p.
  effect on immobility in FST: no effect
